Data: ChEMBL document CHEMBL4665863 (Bioorg Med Chem, 2020)
Converted amounts (≈) assume the structure as drawn.

Legend:
Type in all cases: functional
[1] = tested on: Staphylococcus aureus; assay: Antibacterial activity against methicillin-resistant Staphylococcus aureus ATCC43300 incubated for 24 hrs by CLSI-based broth microdilution method
[2] = tested on: Staphylococcus aureus; assay: Antibacterial activity against Staphylococcus aureus ATCC25923 incubated for 24 hrs by CLSI-based broth microdilution method
[3] = tested on: Pseudomonas aeruginosa; assay: Antibacterial activity against Pseudomonas aeruginosa ATCC27853 incubated for 24 hrs by CLSI-based broth microdilution method
[4] = tested on: Bacillus subtilis; assay: Antibacterial activity against Bacillus subtilis ATCC9372 incubated for 24 hrs by CLSI-based broth microdilution method
[5] = tested on: Staphylococcus aureus; assay: Antibacterial activity against penicillin-resistant Staphylococcus aureus incubated for 24 hrs by CLSI-based broth microdilution method
[6] = tested on: Escherichia coli; assay: Antibacterial activity against Escherichia coli ATCC25922 incubated for 24 hrs by CLSI-based broth microdilution method; details: ATCC 25922
[7] = tested on: Bacillus pumilus; assay: Antibacterial activity against Bacillus pumilus CMCC63202 incubated for 24 hrs by CLSI-based broth microdilution method

Row | Structure (SMILES) | MIC [1] [µg/mL] | MIC [2] [µg/mL] | MIC [3] [µg/mL] | MIC [4] [µg/mL] | MIC [5] [µg/mL] | MIC [6] [µg/mL] | MIC [7] [µg/mL]
1 | CCCOc1ccc(C2CC(COc3ccc(F)c(C(N)=O)c3F)=NO2)cc1 (configuration not stated) | 64 (≈ 164 µM) | > 64 | > 64 | 8 (≈ 20.5 µM) | > 64 | > 64 | 32 (≈ 82 µM)
2 | CCc1ccc(C2CC(COc3ccc(F)c(C(N)=O)c3F)=NO2)cc1 (configuration not stated) | 64 (≈ 178 µM) | 64 (≈ 178 µM) | > 64 | 4 (≈ 11.1 µM) | > 64 | > 64 | 16 (≈ 44.4 µM)
3 | NC(=O)c1c(F)ccc(OCC2CC(c3ccc(Cl)cc3Cl)=NO2)c1F (configuration not stated) | 32 (≈ 79.8 µM) | 16 (≈ 39.9 µM) | > 64 | 4 (≈ 9.97 µM) | 32 (≈ 79.8 µM) | > 64 | 2 (≈ 4.99 µM)
4 | CC(C)(C)c1ccc(C2CC(COc3ccc(F)c(C(N)=O)c3F)=NO2)cc1 (configuration not stated) | 32 (≈ 82.4 µM) | 64 (≈ 165 µM) | > 64 | 2 (≈ 5.15 µM) | 32 (≈ 82.4 µM) | > 64 | 4 (≈ 10.3 µM)
5 | NC(=O)c1c(F)ccc(OCC2=NOC(c3ccc(Cl)c(Cl)c3)C2)c1F (configuration not stated) | > 64 | > 64 | > 64 | 16 (≈ 39.9 µM) | > 64 | > 64 | > 64
6 | CCOc1ccccc1C1CC(COc2ccc(F)c(C(N)=O)c2F)=NO1 (configuration not stated) | > 64 | > 64 | > 64 | > 64 | > 64 | > 64 | > 64
7 | NC(=O)c1c(F)ccc(OCC2CC(c3ccc4c(c3)OCO4)=NO2)c1F (configuration not stated) | 64 (≈ 170 µM) | 64 (≈ 170 µM) | > 64 | 16 (≈ 42.5 µM) | 64 (≈ 170 µM) | > 64 | 16 (≈ 42.5 µM)
8 | NC(=O)c1c(F)ccc(OCC2CC(c3ccccc3)=NO2)c1F (configuration not stated) | > 64 | > 64 | > 64 | 16 (≈ 48.1 µM) | > 64 | > 64 | 64 (≈ 193 µM)
9 | CCCCc1ccc(C2CC(COc3ccc(F)c(C(N)=O)c3F)=NO2)cc1 (configuration not stated) | 4 (≈ 10.3 µM) | 8 (≈ 20.6 µM) | > 64 | ≤ 0.125 | 4 (≈ 10.3 µM) | > 64 | 0.5 (≈ 1.29 µM)
10 | NC(=O)c1c(F)ccc(OCC2CC(c3ccc(Br)cc3)=NO2)c1F (configuration not stated) | 32 (≈ 77.8 µM) | 32 (≈ 77.8 µM) | > 64 | 2 (≈ 4.86 µM) | 32 (≈ 77.8 µM) | > 64 | 4 (≈ 9.73 µM)
11 | NC(=O)c1c(F)ccc(OCC2=NOC(c3cccc(Cl)c3)C2)c1F (configuration not stated) | > 64 | > 64 | > 64 | 64 (≈ 175 µM) | > 64 | > 64 | > 64
12 | COc1cccc(C2=NOC(COc3ccc(F)c(C(N)=O)c3F)C2)c1 (configuration not stated) | > 64 | > 64 | > 64 | 8 (≈ 22.1 µM) | > 64 | > 64 | 32 (≈ 88.3 µM)
13 | CN(C)c1ccc(C2=NOC(COc3ccc(F)c(C(N)=O)c3F)C2)cc1 (configuration not stated) | > 64 | > 64 | > 64 | 16 (≈ 42.6 µM) | > 64 | > 64 | 64 (≈ 170 µM)
14 | CCOc1cccc(C2=NOC(COc3ccc(F)c(C(N)=O)c3F)C2)c1 (configuration not stated) | 32 (≈ 85 µM) | 32 (≈ 85 µM) | > 64 | 4 (≈ 10.6 µM) | 32 (≈ 85 µM) | > 64 | 8 (≈ 21.3 µM)
15 | COc1ccccc1C1=NOC(COc2ccc(F)c(C(N)=O)c2F)C1 (configuration not stated) | > 64 | > 64 | > 64 | > 64 | > 64 | > 64 | > 64
16 | NC(=O)c1c(F)ccc(OCC2CC(c3ccccc3Cl)=NO2)c1F (configuration not stated) | > 64 | > 64 | > 64 | 16 (≈ 43.6 µM) | > 64 | > 64 | 64 (≈ 175 µM)
17 | NC(=O)c1c(F)ccc(OCC2CC(c3ccc(F)cc3)=NO2)c1F (configuration not stated) | 64 (≈ 183 µM) | 64 (≈ 183 µM) | > 64 | 8 (≈ 22.8 µM) | 64 (≈ 183 µM) | > 64 | 32 (≈ 91.4 µM)
18 | NC(=O)c1c(F)ccc(OCC2=NOC(c3ccccc3Cl)C2)c1F (configuration not stated) | > 64 | > 64 | > 64 | 16 (≈ 43.6 µM) | > 64 | > 64 | 32 (≈ 87.3 µM)
19 | Cc1cccc(C2=NOC(COc3ccc(F)c(C(N)=O)c3F)C2)c1 (configuration not stated) | 16 (≈ 46.2 µM) | 32 (≈ 92.4 µM) | > 64 | 16 (≈ 46.2 µM) | 64 (≈ 185 µM) | > 64 | 8 (≈ 23.1 µM)
20 | Cc1ccc(C2=NOC(COc3ccc(F)c(C(N)=O)c3F)C2)cc1 (configuration not stated) | 32 (≈ 92.4 µM) | 32 (≈ 92.4 µM) | > 64 | 16 (≈ 46.2 µM) | > 64 | > 64 | 16 (≈ 46.2 µM)
21 | Cc1ccc(C2CC(COc3ccc(F)c(C(N)=O)c3F)=NO2)cc1 (configuration not stated) | > 64 | > 64 | > 64 | 16 (≈ 46.2 µM) | > 64 | > 64 | 64 (≈ 185 µM)
